Experimental data published in US20250206738A1, “WRN INHIBITORS” (Nimbus Wadjet, Inc., priority 2023, published 2025).
pEC50, pIC50: −log10 of the molar value.

How the values were obtained:
[1] = target: T1, human Werner helicase (WRN, Uniprot Q14191, amino acids 517-1235 with L1074F point mutation; WRN-BV08) (Homo sapiens, UniProt Q14191, L1074F); assay: WRN (BV08) ADP-Glo assay; type: biochemical; conditions: WRN-BV08 (aa 517-1235, L1074F); read-out: ADP-Glo_hWRN_IC50
T1 construct: Uniprot Q14191, amino acids 517-1235 with L1074F point mutation; 8xHis (C, cleaved yes); TEV cleavage site (ENLYFQG) (C, cleaved yes); made in house; host or cells: Sf9 insect cells (baculovirus, pFastBac)
T1 sequence (Q14191 with tags, fused parts or gaps L1074F): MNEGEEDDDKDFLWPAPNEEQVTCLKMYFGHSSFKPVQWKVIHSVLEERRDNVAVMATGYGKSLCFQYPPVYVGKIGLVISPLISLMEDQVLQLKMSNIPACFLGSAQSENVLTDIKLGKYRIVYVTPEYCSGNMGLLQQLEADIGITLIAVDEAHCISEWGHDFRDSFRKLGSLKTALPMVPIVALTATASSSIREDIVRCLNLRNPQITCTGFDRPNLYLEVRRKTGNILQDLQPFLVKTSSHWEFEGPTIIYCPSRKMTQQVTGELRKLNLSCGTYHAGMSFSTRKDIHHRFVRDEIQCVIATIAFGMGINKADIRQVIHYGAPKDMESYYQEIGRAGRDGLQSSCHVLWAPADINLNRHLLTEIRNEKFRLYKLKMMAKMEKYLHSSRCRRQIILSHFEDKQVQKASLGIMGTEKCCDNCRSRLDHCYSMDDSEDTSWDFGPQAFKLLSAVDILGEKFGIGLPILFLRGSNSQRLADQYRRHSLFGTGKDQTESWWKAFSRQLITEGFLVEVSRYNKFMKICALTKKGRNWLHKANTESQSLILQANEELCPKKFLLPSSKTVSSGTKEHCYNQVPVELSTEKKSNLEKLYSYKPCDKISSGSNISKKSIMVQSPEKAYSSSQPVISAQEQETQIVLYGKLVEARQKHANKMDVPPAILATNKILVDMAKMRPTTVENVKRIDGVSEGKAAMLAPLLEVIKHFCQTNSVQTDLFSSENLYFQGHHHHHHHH
Source text: Example 2: WRN (BV08) ADP-Glo Assay Protocol
Bovine skin gelatin (BSG), dimethyl sulfoxide (DMSO), Pluronic F-127 and tris(2-carboxyethyl)phosphine hydrochloride solution (TCEP) were purchased from Sigma-Aldrich (St. Louis, MO) at the highest level of purity possible. Bicine buffer solution was purchased from Alfa Aesar (Tewksbury, MA) and compound NSC-617145 was purchased from Tocris (Minneapolis, MN). DNA duplex was synthesized at BGI (Shenzhen, China) and was composed of strand 1 with the sequence 5′-[…]-3′ (SEQ ID NO.: 1) and strand 2 with the sequence 5′-[…]-3′ (SEQ ID NO.: 2). DNA strands were annealed by heating to 95° C. for 5 minutes followed by slow cooling to room temperature. Compounds in 100% DMSO ([…]) were spotted into a 384-well white polystyrene Optiplate-384 (Perkin Elmer; Waltham, MA) assay plate using a LabCyte Echo 550 (Agilent; Santa Clara, CA). DMSO ([…]) was added to columns 12, rows A-H and column 24, rows I-P for the maximum signal control. Compound NSC-617145 ([…]) was added to columns 12, rows I-P and 24, rows A-H for the minimum signal control (100% inhibition). Compounds/DMSO were preincubated for 15 minutes at 25° C. with […] 2×WRN (BV08), prepared as described below, in assay buffer containing 20 mM Bicine (pH=7.5), 1 mM MgCl2, 10 mM KCl, 0.1% Pluronic F-127, 0.005% BSG, 1 mM TCEP. The reaction was initiated by the addition of […] 2× substrate mixture in assay buffer and incubated for 60 minutes at 25° C. The final concentrations of the assay components were 0.15 nM WRN, […], and 0.1 nM DNA duplex. The final DMSO concentration was 1% and the reference compound concentration (NSC-617145) used for the minimal signal control was […]. The reaction was stopped by the addition of the ADP-Glo Kit components (Promega; Madison, WI) as directed and the relative luminescence units (RLU) were read on an Envision 2104 (Perkin Elmer; Waltham, MA).
% Inhibition Calculation:
Where RLU=relative luminescence units, sample=signal in sample well, and MIN and MAX are the respective minimum and maximum signal controls.
Four-Parameter IC50 Fit Equation:
Where top and bottom are normally allowed to float but may be fixed at 100 or 0 respectively in a 3-parameter fit. Y is the % inhibition and X is the compound concentration.
Molecular Biology and virus production. The DNA encoding human Werner helicase (Uniprot Q14191, amino acids 517-1235 with L1074F point mutation) was generated with codon-optimization for […] expression and subcloned into the pFastBac vector with a TEV cleavable 8×His tag (SEQ ID NO: 5) (WRN—BV08). The baculovirus from the expression plasmid WRN—BV08 was generated from transfection and amplification following the manufacturer's instructions.
Sf9 cells grown in SF900II media were infected with 1:200 WRN—BV08 P2 virus and incubated for protein expression for 72 h at 27° C. The WRN protein was purified using the following protocol. The cell pellets were thawed and resuspended in buffer A (50 mM Tris, pH 7.5, 500 mM NaCl, 1 mM TCEP, 10% Glycerol) supplemented with 0.5% CHAPS, 1 mM PMSF, 1 μg/ml Leupeptin, 1 μg/ml Pepstatin, and the Pierce Universal Nuclease and cocktail tablet. Cleared lysates were loaded onto a Ni Sepharose™ excel column and washed with buffer A and bound protein was eluted with buffer A supplemented with 300 mM imidazole. The eluted protein was dialyzed against buffer A and digested by His-tagged TEV (1:5 ratio) overnight at 4° C. ZnCl2 was added into the sample at final 15 μM before loading onto a second Ni Sepharose™ excel column. Untagged WRN protein was eluted from the column with buffer A supplemented with 20 mM imidazole, dialyzed overnight into buffer B (50 mM Tris, pH 7.5, 1 mM TCEP, 10% Glycerol) supplemented with 150 mM NaCl and loaded onto a Heparin column. Proteins were eluted with a step gradient of buffer B supplemented with 150 mM, 200 mM, 300 mM and 500 mM NaCl. […]

[2] = system: p21 induction in HCT 116 cells; assay: p21 induction in cells (In-Cell Western, p21/GAPDH ratio); type: cell-based; conditions: Homo sapiens, HCT-116, 24 h, 24 h compound incubation, read-out: P21_EC50
Procedure: Example 3: Method for Determining Effect on p21 Induction in Cells
The colon carcinoma cell line HCT 116 was obtained from ATCC and cultured in growth medium consisting of Mccoy's 5A Medium (Gibco 16600108) supplemented with 10% FBS (Transgene FS201-02) and 100 units/mL penicillin-streptomycin (Gibco 15140122) and maintained at 37° C. under 5% CO2. On the day of seeding, 2,000 cells in 30 μL of culture media were plated per well to Poly-D-Lysine 384 Well Black Clear Plates (Biocoat 356663) and incubated overnight at 37° C. under 5% CO2. The following day, compounds were serially diluted in DMSO for a total of 11 test concentrations. The typical starting concentration of compounds was 10 μM with 2-fold dilutions. Next, 150 nL of diluted compound was added in duplicate to the assay plate, using an Echo 655 (Labcyte). The plate was centrifuged at 500 RPM for 1 min and then incubated at 37° C. under 5% CO2 for 24 h. After 24h, medium was removed, and cells were fixed by adding 40 μL of 4% paraformaldehyde solution to each well and incubated for 20 min at room temperature. The plate was then washed 4 times with 100 μL per well of wash buffer (PBS with 0.1% Tween-20) using a microplate washer. Next, 30 μL of ice-cold methanol was added to each well and the plate was incubated at −20° C. for 10 min. The plate was washed 4 times with 100 μL per well of wash buffer by a microplate washer, then 30 μL per well of blocking buffer (Intercept PBS blocking buffer (LI-COR 927-70001) with 0.05% Tween-20) was added and the plate was incubated at room temperature with shaking for 2h. Next, to each test well, 20 μL of primary antibody solution (p21 Waf1/CIP (12D1) RabbitmAb (Cell Signaling Technologies 2947) diluted 1:1000 and GAPDH (D4C6R) Mouse mAb (Cell Signaling Technologies 97166) diluted 1:2000 in blocking buffer) was added and the plate was placed at 4° C., overnight. The following day, the plate was washed 5 times with 100 μL per well of wash buffer using a microplate washer for 5 min. 20 μL per well of secondary antibody (IRDye 680CW Goat anti-Mouse IgG (H+L) (LI-COR 926-68070) diluted 1: 2000 in Blocking Buffer and IRDye 800CW Goat anti-Rabbit IgG (H+L) (LI-COR 926-32211) diluted 1: 2000 in Blocking Buffer) was then added and the plate was stored for 2h in the dark at room temperature with shaking. The plate was then washed 4 times with 100 μL per well of wash buffer again using a microplate washer. Finally, the p21 signal and the GAPDH signal were quantified using a LI-COR Odyssey CLx Imager machine reading at 800 nm and 700 nm, respectively. Each plate contained DMSO control (low control) and an internal reference WRN inhibitor (high control) respectively. For quantitation, the 800 nm/700 nm ratio was calculated for each well to give fold p21 induction and then percent activation for each compound well was calculated as follows (100×(ratio cpd well−ratio low control)/(ratio high control−ratio low control)). EC50 values for each compound were generated after non-linear regression curve fitting using commercially available software.

| Compound | pIC50 [1] | pEC50 [2] |
| --- | --- | --- |
| CCc1c(N2CCN(C(=O)c3ncnc(C)c3O)CC2)c(=O)n2nc(-c3ccnc(OC)c3)nc2n1CC(=O)N[C@H]1CC[C@H](C(F)(F)F)CC1 [I-242, 2-(5-ethyl-6-(4-(5-hydroxy-6-methylpyrimidine-4-carbonyl)piperazin-1-yl)-2-(2-methoxypyridin-4-yl)-7-oxo-[1,2,4]triazolo[1,5-a]pyrimidin-4(7H)-yl)-N-((1r,4r)-4-(trifluoromethyl)cyclohexyl)acetamide] | 6.30 to 7.00 | < 5.30 |
| CCc1c(N2CCN(C(=O)c3c(OC)ncc(C)c3O)CC2)c(=O)n2nc(-c3ccnc(C)c3)nc2n1CC(=O)NC12CC(C(C)C)(C1)C2 [I-217, 2-(5-ethyl-6-(4-(4-hydroxy-2-methoxy-5-methylnicotinoyl)piperazin-1-yl)-2-(2-methylpyridin-4-yl)-7-oxo-[1,2,4]triazolo[1,5-a]pyrimidin-4(7H)-yl)-N-(3-isopropylbicyclo[1.1.1]pentan-1-yl)acetamide] | 7.30 to 8.30 | ≥ 6.30 |
| CCc1c(N2CCN(C(=O)c3c(OC)ncc(C4CC4)c3O)CC2)c(=O)c2nn(-c3ccnc(OC)c3)nc2n1CC(=O)NC12CC(C(C)C)(C1)C2 [I-83, 2-{6-[4-(5-cyclopropyl-4-hydroxy-2-methoxypyridine-3-carbonyl)piperazin-1-yl]-5-ethyl-2-(2-methoxypyridin-4-yl)-7-oxo-2H,4H,7H-[1,2,3]triazolo[4,5-b]pyridin-4-yl}-N-[3-(propan-2-yl)bicyclo[1.1.1]pentan-1-yl]acetamide] |  | ≥ 6.30 |
| CCc1c(N2CCN(C(=O)c3ncnc(C)c3O)[C@H]3CC[C@@H]32)c(=O)c2nn(C3=CCOCC3)nc2n1CC(=O)NC12CC(C(C)(C)C)(C1)C2 [I-184, N-{3-tert-butylbicyclo[1.1.1]pentan-1-yl}-2-[2-(3,6-dihydro-2H-pyran-4-yl)-5-ethyl-6-[(1S,6S)-5-(5-hydroxy-6-methylpyrimidine-4-carbonyl)-2,5-diazabicyclo[4.2.0]octan-2-yl]-7-oxo-2H,4H,7H-[1,2,3]triazolo[4,5-b]pyridin-4-yl]acetamide] | 7.30 to 8.30 |  |

More lines, now with the values ahead:

| pIC50 [1] | pEC50 [2] | Compound |
| --- | --- | --- |
| 7.30 to 8.30 | 5.70 to 6.30 | CCc1c(N2CCN(C(=O)c3ncc4c(c3O)CCO4)CC2)c(=O)n2nc(C3=CCOCC3)nc2n1CC(=O)NC12CC(C3CC3)(C1)C2 [I-9, N-(3-cyclopropylbicyclo[1.1.1]pentan-1-yl)-2-(2-(3,6-dihydro-2H-pyran-4-yl)-5-ethyl-6-(4-(4-hydroxy-2,3-dihydrofuro[2,3-c]pyridine-5-carbonyl)piperazin-1-yl)-7-oxo-[1,2,4]triazolo[1,5-a]pyrimidin-4(7H)-yl)acetamide] |
| 7.30 to 8.30 | ≥ 6.30 | CCc1c(N2CCN(C(=O)c3c(O)ccc4ncoc34)CC2)c(=O)n2nc(N(C)C)nc2n1CC(=O)NC12CC(C3CCC3)(C1)C2 [I-203, N-(3-cyclobutylbicyclo[1.1.1]pentan-1-yl)-2-(2-(dimethylamino)-5-ethyl-6-(4-(6-hydroxybenzo[d]oxazole-7-carbonyl)piperazin-1-yl)-7-oxo-[1,2,4]triazolo[1,5-a]pyrimidin-4(7H)-yl)acetamide] |
| 7.30 to 8.30 | ≥ 6.30 | CCc1c(N2CCN(C(=O)c3ncnc(C)c3O)CC2)c(=O)n2nc(-c3ccnc(OC)c3)nc2n1CC(=O)NC12CC(C(C)C)(C1)C2 [I-40, 2-(5-ethyl-6-(4-(5-hydroxy-6-methylpyrimidine-4-carbonyl)piperazin-1-yl)-2-(2-methoxypyridin-4-yl)-7-oxo-[1,2,4]triazolo[1,5-a]pyrimidin-4(7H)-yl)-N-(3-isopropylbicyclo[1.1.1]pentan-1-yl)acetamide] |
| 7.30 to 8.30 | 5.30 to 5.70 | CCc1c(N2CCN(C(=O)c3cc(C(C)(C)O)cnc3OC)[C@H]3CC[C@@H]32)c(=O)c2nn(C3=CCOCC3)nc2n1CC(=O)NC12CC(C3CC3)(C1)C2 [I-221, N-(3-cyclopropylbicyclo[1.1.1]pentan-1-yl)-2-(2-(3,6-dihydro-2H-pyran-4-yl)-5-ethyl-6-((1S,6S)-5-(5-(2-hydroxypropan-2-yl)-2-methoxynicotinoyl)-2,5-diazabicyclo[4.2.0]octan-2-yl)-7-oxo-2,7-dihydro-4H-[1,2,3]triazolo[4,5-b]pyridin-4-yl)acetamide] |
